Assay results reported in ChEMBL document CHEMBL1201862, “PubChem BioAssay data set” (2004).
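Briefly, cells in 96-well plates were exposed to five compound concentrations for 48 h, and endpoints were estimated by linear interpolation. Here, GI50 denotes the concentration required for 50% inhibition of growth.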 Calls of active or inactive are those of the source. Cut-off read from the data, not from the text of the source: active = GI50 up to about 1.1 µM and inactive = higher.

Experiments:
Experiment in all cases: DTP human tumour cell line panel, 48 h
SF-539 = test system: SF-539
SK-MEL-28 = test system: SK-MEL-28
MCF7 = test system: MCF7
SW-620 = test system: SW-620
NCI-H23 = test system: NCI-H23
OVCAR-8 = test system: OVCAR-8
OVCAR-5 = test system: OVCAR-5
A498 = test system: A498
T47D = test system: T47D
NCI-H226 = test system: NCI-H226
CCRF-CEM = test system: CCRF-CEM
HT-29 = test system: HT-29
PC-3 = test system: PC-3
UO-31 = test system: UO-31
HOP-62 = test system: HOP-62
LOX IMVI = test system: LOX IMVI
Malme-3M = test system: Malme-3M
786-0 = test system: 786-0
U-251 = test system: U-251
DU-145 = test system: DU-145

Measured: GI50

CN1CCN(C2CC(=O)c3c(Cl)sc(Cl)c32)CC1 (stereo not drawn)
inactive: SF-539 17.3 µM | SK-MEL-28 7.57 µM | MCF7 4.99 µM | SW-620 7.94 µM | NCI-H23 9.12 µM | OVCAR-8 7.66 µM | OVCAR-5 27.7 µM | A498 43.2 µM | T47D 18.5 µM | NCI-H226 > 42.8 µM | CCRF-CEM 3.45 µM | HT-29 11.4 µM | PC-3 29.4 µM | UO-31 7.6 µM | HOP-62 19 µM | LOX IMVI 1.8 µM | Malme-3M 23.9 µM | 786-0 7.21 µM | U-251 11.3 µM | DU-145 12.6 µM

COc1ccc(Cc2n[nH]c(Nc3ccc(Br)cc3)nc2=O)cc1OC
inactive: SF-539 > 100 µM | SK-MEL-28 > 89.9 µM | MCF7 44.6 µM | SW-620 > 100 µM | NCI-H23 > 100 µM | OVCAR-8 > 100 µM | OVCAR-5 > 100 µM | A498 > 100 µM | T47D 94.2 µM | NCI-H226 > 100 µM | CCRF-CEM 59.2 µM | HT-29 > 100 µM | PC-3 > 92.5 µM | UO-31 > 76.2 µM | HOP-62 42.9 µM | LOX IMVI 69.5 µM | Malme-3M 47.2 µM | 786-0 > 100 µM | U-251 > 100 µM | DU-145 > 100 µM

COC(=O)/C=C\C(C#N)(C#N)/N=C/c1cccc(OC)c1
inactive: SF-539 2.53 µM | SK-MEL-28 14.3 µM | MCF7 4.94 µM | SW-620 2.13 µM | NCI-H23 6.9 µM | OVCAR-8 3.13 µM | OVCAR-5 8.49 µM | A498 18.6 µM | T47D 4.8 µM | NCI-H226 14.3 µM | CCRF-CEM 1.72 µM | HT-29 3.77 µM | PC-3 15.8 µM | UO-31 2.74 µM | HOP-62 > 42.7 µM | LOX IMVI 7.16 µM | Malme-3M 1.71 µM | 786-0 3.51 µM | U-251 15.9 µM | DU-145 14.5 µM

CCOC(=O)NC(Nc1ccc(S(=O)(=O)Nc2nc(C)cc(C)n2)cc1)(C(=O)OCC)C(F)(F)F (stereo not drawn)
inactive: SF-539 > 100 µM | SK-MEL-28 > 100 µM | MCF7 > 100 µM | SW-620 > 100 µM | NCI-H23 > 100 µM | OVCAR-8 > 100 µM | OVCAR-5 > 100 µM | A498 > 100 µM | T47D > 100 µM | NCI-H226 > 100 µM | CCRF-CEM > 100 µM | HT-29 > 100 µM | PC-3 > 100 µM | UO-31 > 100 µM | HOP-62 > 100 µM | LOX IMVI > 100 µM | Malme-3M > 100 µM | 786-0 > 100 µM | U-251 > 100 µM | DU-145 > 100 µM

O=C1CCC2(CC1CCSc1ccccc1)OCCO2 (stereo not drawn)
inactive: SF-539 > 100 µM | SK-MEL-28 > 100 µM | MCF7 > 100 µM | SW-620 > 100 µM | NCI-H23 > 100 µM | OVCAR-8 > 100 µM | OVCAR-5 > 100 µM | A498 > 100 µM | T47D > 100 µM | NCI-H226 > 100 µM | CCRF-CEM > 100 µM | HT-29 > 100 µM | PC-3 > 100 µM | UO-31 > 100 µM | HOP-62 > 100 µM | LOX IMVI 98.9 µM | Malme-3M > 100 µM | 786-0 > 100 µM | U-251 > 100 µM | DU-145 > 100 µM

Cc1ccc(C2=CC(=O)/C(=C\C(=O)c3ccc(Br)cc3)O2)c(C)c1
inactive: SF-539 31.4 µM | SK-MEL-28 17.2 µM | MCF7 5.33 µM | NCI-H23 26.6 µM | OVCAR-8 6.58 µM | OVCAR-5 23.7 µM | A498 19.9 µM | T47D 8.79 µM | NCI-H226 10.9 µM | CCRF-CEM 2.69 µM | HT-29 7.89 µM | PC-3 5.35 µM | UO-31 9.02 µM | HOP-62 42.4 µM | LOX IMVI 3.78 µM | Malme-3M 10.5 µM | 786-0 8.34 µM | U-251 18 µM | DU-145 30.4 µM

CCCCNc1nc(NC2OCC(OC(C)=O)C(OC(C)=O)C2OC(C)=O)c(N=O)c(=O)n1C (stereo not drawn)
inactive: SF-539 > 10 µM | SK-MEL-28 > 10 µM | MCF7 > 10 µM | SW-620 > 10 µM | NCI-H23 > 10 µM | OVCAR-8 > 10 µM | OVCAR-5 > 10 µM | A498 > 10 µM | T47D > 10 µM | NCI-H226 > 10 µM | CCRF-CEM > 10 µM | HT-29 > 10 µM | PC-3 > 10 µM | HOP-62 > 10 µM | LOX IMVI > 10 µM | Malme-3M > 10 µM | 786-0 > 10 µM | U-251 > 10 µM | DU-145 > 10 µM
